Assay results taken from PubChem BioAssay AID1259407 (Chemical Carcinogenesis Research Information System (CCRIS), 2018).
Calls of active or inactive are those of the source. The rule behind the calls is not given here.

Tested on: CCRIS mutagenicity, Ames/micronucleus/aberration tests
Assay: CCRIS mutagenicity studies
[1] = Test System: AMES SALMONELLA TYPHIMURIUM, Strain/Indicator: TA98, Metabolic Activation: HAMSTER, LIVER, S-9, AROCLOR 1254 (10%), Method: PREINCUBATION
[2] = Test System: AMES SALMONELLA TYPHIMURIUM, Strain/Indicator: TA98, Metabolic Activation: NONE, Method: PREINCUBATION
[3] = Test System: AMES SALMONELLA TYPHIMURIUM, Strain/Indicator: TA98, Metabolic Activation: RAT, LIVER, S-9, AROCLOR 1254 (10%), Method: PREINCUBATION
[4] = Test System: AMES SALMONELLA TYPHIMURIUM, Strain/Indicator: TA100, Metabolic Activation: HAMSTER, LIVER, S-9, AROCLOR 1254 (10%), Method: PREINCUBATION
[5] = Test System: AMES SALMONELLA TYPHIMURIUM, Strain/Indicator: TA100, Metabolic Activation: NONE, Method: PREINCUBATION
[6] = Test System: AMES SALMONELLA TYPHIMURIUM, Strain/Indicator: TA100, Metabolic Activation: RAT, LIVER, S-9, AROCLOR 1254 (10%), Method: PREINCUBATION
[7] = Test System: AMES SALMONELLA TYPHIMURIUM, Strain/Indicator: TA1535, Metabolic Activation: HAMSTER, LIVER, S-9, AROCLOR 1254 (10%), Method: PREINCUBATION
[8] = Test System: AMES SALMONELLA TYPHIMURIUM, Strain/Indicator: TA1535, Metabolic Activation: NONE, Method: PREINCUBATION
[9] = Test System: AMES SALMONELLA TYPHIMURIUM, Strain/Indicator: TA1535, Metabolic Activation: RAT, LIVER, S-9, AROCLOR 1254 (10%), Method: PREINCUBATION
[10] = Test System: AMES SALMONELLA TYPHIMURIUM, Strain/Indicator: TA98, Metabolic Activation: NONE, Method: STANDARD PLATE
[11] = Test System: AMES SALMONELLA TYPHIMURIUM, Strain/Indicator: TA100, Metabolic Activation: NONE, Method: STANDARD PLATE
[12] = Test System: AMES SALMONELLA TYPHIMURIUM, Strain/Indicator: TA98, Metabolic Activation: RAT, LIVER, S-9, AROCLOR 1254, Method: STANDARD PLATE
[13] = Test System: AMES SALMONELLA TYPHIMURIUM, Strain/Indicator: TA100, Metabolic Activation: RAT, LIVER, S-9, AROCLOR 1254, Method: STANDARD PLATE
[14] = Test System: AMES SALMONELLA TYPHIMURIUM, Strain/Indicator: TA98, Metabolic Activation: RAT, LIVER, S-9, AROCLOR 1254, Method: PREINCUBATION

Structure (SMILES): c1ccc(CSCc2ccccc2)cc1
- mutagenic call (Test System: AMES SALMONELLA TYPHIMURIUM, Strain/Indicator: TA97, Metabolic Activation: HAMSTER, LIVER, S-9, AROCLOR 1254 (10%), Method: PREINCUBATION): inactive; negative
- mutagenic call (Test System: AMES SALMONELLA TYPHIMURIUM, Strain/Indicator: TA97, Metabolic Activation: HAMSTER, LIVER, S-9, AROCLOR 1254 (30%), Method: PREINCUBATION): inactive; negative
- mutagenic call (Test System: AMES SALMONELLA TYPHIMURIUM, Strain/Indicator: TA97, Metabolic Activation: NONE, Method: PREINCUBATION): inactive; negative
- mutagenic call (Test System: AMES SALMONELLA TYPHIMURIUM, Strain/Indicator: TA97, Metabolic Activation: RAT, LIVER, S-9, AROCLOR 1254 (10%), Method: PREINCUBATION): inactive; negative
- mutagenic call (Test System: AMES SALMONELLA TYPHIMURIUM, Strain/Indicator: TA97, Metabolic Activation: RAT, LIVER, S-9, AROCLOR 1254 (30%), Method: PREINCUBATION): inactive; negative
- mutagenic call [1]: inactive; negative
- mutagenic call (Test System: AMES SALMONELLA TYPHIMURIUM, Strain/Indicator: TA98, Metabolic Activation: HAMSTER, LIVER, S-9, AROCLOR 1254 (30%), Method: PREINCUBATION): inactive; negative
- mutagenic call [2]: inactive; negative
- mutagenic call [3]: inactive; negative
- mutagenic call (Test System: AMES SALMONELLA TYPHIMURIUM, Strain/Indicator: TA98, Metabolic Activation: RAT, LIVER, S-9, AROCLOR 1254 (30%), Method: PREINCUBATION): inactive; negative
- mutagenic call [4]: inactive; negative
- mutagenic call (Test System: AMES SALMONELLA TYPHIMURIUM, Strain/Indicator: TA100, Metabolic Activation: HAMSTER, LIVER, S-9, AROCLOR 1254 (30%), Method: PREINCUBATION): inactive; negative
- mutagenic call [5]: inactive; negative
- mutagenic call [6]: inactive; negative
- mutagenic call (Test System: AMES SALMONELLA TYPHIMURIUM, Strain/Indicator: TA100, Metabolic Activation: RAT, LIVER, S-9, AROCLOR 1254 (30%), Method: PREINCUBATION): inactive; negative
- mutagenic call [7]: inactive; negative
- mutagenic call (Test System: AMES SALMONELLA TYPHIMURIUM, Strain/Indicator: TA1535, Metabolic Activation: HAMSTER, LIVER, S-9, AROCLOR 1254 (30%), Method: PREINCUBATION): inactive; negative
- mutagenic call [8]: inactive; negative
- mutagenic call [9]: inactive; negative
- mutagenic call (Test System: AMES SALMONELLA TYPHIMURIUM, Strain/Indicator: TA1535, Metabolic Activation: RAT, LIVER, S-9, AROCLOR 1254 (30%), Method: PREINCUBATION): inactive; negative

Structure (SMILES): CC1=CC(C)(C)Nc2ccccc21
- mutagenic call [1]: inactive; negative
- mutagenic call [2]: inactive; negative
- mutagenic call [10]: inactive; negative
- mutagenic call [3]: inactive; negative
- mutagenic call (Test System: AMES SALMONELLA TYPHIMURIUM, Strain/Indicator: TA98, Metabolic Activation: S-9, Method: STANDARD PLATE): inactive; negative
- mutagenic call [4]: inactive; negative
- mutagenic call [5]: inactive; negative
- mutagenic call [11]: inactive; negative
- mutagenic call [6]: inactive; negative
- mutagenic call (Test System: AMES SALMONELLA TYPHIMURIUM, Strain/Indicator: TA100, Metabolic Activation: S-9, Method: STANDARD PLATE): inactive; negative
- mutagenic call [7]: inactive; negative
- mutagenic call [8]: inactive; negative
- mutagenic call [9]: inactive; negative
- mutagenic call (Test System: AMES SALMONELLA TYPHIMURIUM, Strain/Indicator: TA1537, Metabolic Activation: HAMSTER, LIVER, S-9, AROCLOR 1254 (10%), Method: PREINCUBATION): inactive; negative
- mutagenic call (Test System: AMES SALMONELLA TYPHIMURIUM, Strain/Indicator: TA1537, Metabolic Activation: NONE, Method: PREINCUBATION): inactive; negative
- mutagenic call (Test System: AMES SALMONELLA TYPHIMURIUM, Strain/Indicator: TA1537, Metabolic Activation: RAT, LIVER, S-9, AROCLOR 1254 (10%), Method: PREINCUBATION): inactive; negative

Structure (SMILES): C[C@@H]1O[C@@H](O[C@H]2[C@H](O[C@H]3[C@H](O[C@H]4CC[C@@]5(C)[C@@H](CC[C@]6(C)[C@@H]5CC=C5[C@@H]7CC(C)(C)C[C@@H](O)[C@]7(C)CC[C@]56C)[C@@]4(C)CO)O[C@H](C(=O)O)[C@@H](O)[C@@H]3O)O[C@H](CO)[C@H](O)[C@@H]2O)[C@H](O)[C@H](O)[C@H]1O
- mutagenic call (Test System: AMES SALMONELLA TYPHIMURIUM, Strain/Indicator: TA97, Metabolic Activation: NONE, Method: STANDARD PLATE): inactive; negative
- mutagenic call (Test System: AMES SALMONELLA TYPHIMURIUM, Strain/Indicator: TA97, Metabolic Activation: RAT, LIVER, S-9, AROCLOR 1254, Method: STANDARD PLATE): inactive; negative
- mutagenic call [10]: inactive; negative
- mutagenic call [12]: inactive; negative
- mutagenic call [11]: inactive; negative
- mutagenic call [13]: inactive; negative
- mutagenic call (Test System: AMES SALMONELLA TYPHIMURIUM, Strain/Indicator: TA102, Metabolic Activation: NONE, Method: STANDARD PLATE): inactive; negative
- mutagenic call (Test System: AMES SALMONELLA TYPHIMURIUM, Strain/Indicator: TA102, Metabolic Activation: RAT, LIVER, S-9, AROCLOR 1254, Method: STANDARD PLATE): inactive; negative

Structure (SMILES): CCn1c(N)nc2c3cccnc3ccc21
- mutagenic call [14]: active; positive

Structure (SMILES): COc1c(O)cc2c3c(cc4ccccc4c13)NC2=O
- mutagenic call (Test System: AMES SALMONELLA TYPHIMURIUM, Strain/Indicator: TM677/8-AZAGUANINE, Metabolic Activation: NONE, Method: SUSPENSION/PLATE): inactive; negative

Structure (SMILES): C=CCc1cc(OC)c(OC)c(OC)c1
- mutagenic call (Test System: UDS RAT HEPATOCYTES, Strain/Indicator: THY INCORP, Metabolic Activation: NONE, Method: LIQUID SCINTILLATION COUNTING): active; positive

Structure (SMILES): C1CS1
- mutagenic call (Test System: AMES SALMONELLA TYPHIMURIUM, Strain/Indicator: TA98, Metabolic Activation: HAMSTER, LIVER, S-9, AROCLOR 1254, Method: PREINCUBATION): inactive; negative
- mutagenic call [2]: inactive; negative
- mutagenic call [14]: inactive; negative
- mutagenic call (Test System: AMES SALMONELLA TYPHIMURIUM, Strain/Indicator: TA100, Metabolic Activation: HAMSTER, LIVER, S-9, AROCLOR 1254, Method: PREINCUBATION): active; positive
- mutagenic call [5]: active; positive
- mutagenic call (Test System: AMES SALMONELLA TYPHIMURIUM, Strain/Indicator: TA100, Metabolic Activation: RAT, LIVER, S-9, AROCLOR 1254, Method: PREINCUBATION): active; positive
- mutagenic call (Test System: MOUSE LYMPHOMA, Strain/Indicator: L5178Y (TK+/TK-), Metabolic Activation: NONE, Method: SUSPENSION/PLATE): active; positive. reevaluation of results: positive
- mutagenic call (Test System: MOUSE LYMPHOMA, Strain/Indicator: L5178Y (TK+/TK-), Metabolic Activation: RAT, LIVER, S-9, AROCLOR 1254, Method: SUSPENSION/PLATE): active; positive. reevaluation of results: positive

Structure (SMILES): NNc1ccc(C(=O)O)cc1
- mutagenic call (Test System: AMES SALMONELLA TYPHIMURIUM, Strain/Indicator: TA104, Metabolic Activation: MUSHROOM TYROSINASE, Method: PREINCUBATION): inactive; negative
- mutagenic call (Test System: AMES SALMONELLA TYPHIMURIUM, Strain/Indicator: TA104, Metabolic Activation: NONE, Method: PREINCUBATION): inactive; negative
- mutagenic call (Test System: AMES SALMONELLA TYPHIMURIUM, Strain/Indicator: TA104, Metabolic Activation: RAT, LIVER, CYTOSOL, AROCLOR 1254, NADPH, Method: PREINCUBATION): inactive; negative

Structure (SMILES): COC1=CC(=O)O[C@@H](CCc2ccc3c(c2)OCO3)C1
- mutagenic call (Test System: Mouse lymphoma cells, Strain/Indicator: L5178Y ( tk+/tk-), Metabolic Activation: Human, Liver, S-9, Method: Suspension/plate): inactive; negative

Structure (SMILES): CC(=O)N(O)c1ccccc1
- mutagenic call [10]: inactive; negative
- mutagenic call [12]: inactive; negative
- mutagenic call [11]: inactive; negative
- mutagenic call [13]: inactive; negative
